The target in one experiment is KAT2A (Homo sapiens (Human), UniProt Q92830). As to the kind of experiment: KAT2A acetyltransferase biochemical assay (RapidFire mass spectrometry, AcCoA to CoA). The settings on record: KAT2A Ki at 1 μM AcCoA, 5 μM H3 1-21 peptide, 0.5 nM KAT2A, 90-minute reaction.
Chain of KAT2A (Q92830 whole entry): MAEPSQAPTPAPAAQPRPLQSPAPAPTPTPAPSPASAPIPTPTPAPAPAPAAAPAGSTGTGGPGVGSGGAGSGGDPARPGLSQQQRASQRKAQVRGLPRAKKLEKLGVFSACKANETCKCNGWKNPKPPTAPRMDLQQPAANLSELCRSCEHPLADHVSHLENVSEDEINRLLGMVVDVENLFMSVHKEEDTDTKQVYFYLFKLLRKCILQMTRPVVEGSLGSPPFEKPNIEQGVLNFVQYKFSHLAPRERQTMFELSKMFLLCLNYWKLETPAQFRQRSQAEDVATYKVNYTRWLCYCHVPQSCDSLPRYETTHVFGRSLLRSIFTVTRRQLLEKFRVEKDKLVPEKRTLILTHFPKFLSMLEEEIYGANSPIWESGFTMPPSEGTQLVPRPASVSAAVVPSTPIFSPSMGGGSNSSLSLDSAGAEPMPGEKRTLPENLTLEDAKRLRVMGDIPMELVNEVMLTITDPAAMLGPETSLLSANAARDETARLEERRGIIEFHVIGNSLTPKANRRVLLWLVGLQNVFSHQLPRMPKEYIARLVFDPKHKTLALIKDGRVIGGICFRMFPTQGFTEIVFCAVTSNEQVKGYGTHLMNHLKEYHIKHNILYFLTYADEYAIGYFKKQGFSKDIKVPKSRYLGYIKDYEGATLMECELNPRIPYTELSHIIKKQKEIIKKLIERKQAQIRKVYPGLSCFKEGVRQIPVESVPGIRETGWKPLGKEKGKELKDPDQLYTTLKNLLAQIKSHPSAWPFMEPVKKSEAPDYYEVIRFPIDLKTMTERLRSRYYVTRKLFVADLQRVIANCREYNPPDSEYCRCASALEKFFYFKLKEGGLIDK
With `CS(=O)(=O)NC(=O)Cc1ccc(O[C@@H]2CC[C@@H](NC(=O)C3(F)CNC4(CCCC4)C3)C2)c(-c2cccc(F)c2C2CCC2)c1` (single isomer, unassigned) [Example B15], the Ki was 660 nM.

Take `CS(=O)(=O)NC(=O)Cc1ccc(O[C@@H]2CC[C@@H](NC(=O)[C@]3(F)CNC4(CCC4)C3)C2)c(-c2cccc(F)c2C2CCC2)c1` (single isomer, unassigned) [Example C39]: the affinity, expressed as Ki, was 20.4 nM.

`CC(C)(C(=O)O)c1ccc(O[C@@H]2CC[C@@H](NC(=O)[C@]3(F)CNC4(CCC4)C3)C2)c(-c2cccc(F)c2C2CCC2)c1` [Example A2, 2-(2′-cyclobutyl-3′-fluoro-6-{[(1R,3R)-3-({[(7R)-7-fluoro-5-azaspiro[3.4]oct-7-yl]carbonyl}amino)cyclopentyl]oxy}biphenyl-3-yl)-2-methylpropanoic acid] came in with a Ki of 2750 nM.

Take `Cc1cc(NS(C)(=O)=O)n(-c2ccc(O[C@@H]3CC[C@@H](NC(=O)[C@@]4(F)CNC5(CCC5)C4)C3)c(-c3cccc(F)c3C3CCC3)c2)n1` (single isomer, unassigned) [Example L2]: the Ki is greater than 99.9 nM.

The experiment is the same for the next values; noted with them: read-out: KAT2A Ki at 1 μM AcCoA, 5 μM H3 1-21 peptide, 0.5 nM KAT2A, 90-minute reaction.
With `CC1(C)C[C@H](C(=O)N[C@@H]2CC[C@@H](Oc3cccc(C(=O)O)c3-c3cccc(F)c3C3CCC3)C2)CN1` (atropisomer, axis not shown) [Example H11, (1ψ)-2′-cyclobutyl-6-{[(1R,3R)-3-{[(3ξ)-5,5-dimethylpyrrolidine-3-carbonyl]amino}cyclopentyl]oxy}-3′-fluoro[1,1′-biphenyl]-2-carboxylic acid], the Ki stood at 1100 nM.

For the molecule `CC(C)c1ccccc1-c1cc(CC(=O)NS(=O)(=O)C2(C)CC2)ccc1O[C@@H]1CC[C@@H](NC(=O)[C@@]2(F)CNC3(CCCC3)C2)C1` (single isomer, unassigned) [Example C62], the Ki was greater than 99.9 nM.

With `CCc1c(F)cccc1-c1cc([C@@H](C)C(=O)NS(=O)(=O)C2(C)CC2)ccc1O[C@@H]1CC[C@@H](NC(=O)[C@@]2(F)CNC3(CCCC3)C2)C1` (single isomer, unassigned) [Example C84], the Ki was greater than 99.9 nM.

Consider `CC1(C)C[C@@H](C(=O)N[C@@H]2CC[C@@H](Oc3cccc(C(=O)O)c3-c3cccc(F)c3C3CCC3)C2)CN1` (atropisomer, axis not shown) [Example H10], for which the Ki amounted to 26400 nM.

Consider `CCc1c(F)cccc1-c1cc(C(C)(C)C(=O)NS(C)(=O)=O)ccc1O[C@@H]1CC[C@@H](NC(=O)[C@@]2(F)CNC3(CCCC3)C2)C1` (single isomer, unassigned) [Example C26], for which the Ki came out at 338 nM.

In the case of `CC(C)S(=O)(=O)NC(=O)C(C)(C)c1ccc(O[C@@H]2CC[C@@H](NC(=O)[C@@]3(F)CNC4(CCCC4)C3)C2)c(-c2cccc(F)c2C2CCC2)c1` (single isomer, unassigned) [Example B23], the Ki is greater than 1000 nM.

`CC(C)S(=O)(=O)NC(=O)C(C)(C)c1ccc(O[C@@H]2CC[C@@H](NC(=O)[C@@]3(F)CNCC(C)(C)C3)C2)c(-c2cccc(F)c2C2CCC2)c1` (single isomer, unassigned) [Example B29]: the Ki is 221 nM.

Take `CCc1c(F)cccc1-c1cc(C(C)(C)C(=O)NS(=O)(=O)C(C)C)ccc1O[C@@H]1CC[C@@H](NC(=O)[C@@]2(F)CNC3(CCCC3)C2)C1` (single isomer, unassigned) [Example C28]: the Ki was 302 nM.

For the molecule `CCc1c(F)cccc1-c1cc([C@@H](C)C(=O)NS(=O)(=O)C2(C)CC2)ccc1O[C@@H]1CC[C@@H](NC(=O)[C@@]2(F)CNC3(CCCC3)C2)C1` (single isomer, unassigned) [Example C86], the inhibition constant (Ki) was greater than 99.9 nM.

As to `C[C@H](C(=O)O)c1ccc(O[C@@H]2CC[C@@H](NC(=O)[C@@]3(F)CNC4(CCC4)C3)C2)c(-c2cccc(F)c2C2CCC2)c1` (single isomer, unassigned) [Example A17], the inhibitory constant (Ki) was greater than 1000 nM.

`CC(C)S(=O)(=O)NC(=O)C(C)(C)c1ccc(O[C@@H]2CC[C@@H](NC(=O)[C@]3(F)CNC4(CCC4)C3)C2)c(-c2ccccc2C2CCC2)c1` (single isomer, unassigned) [Example C49]: the Ki is greater than 99.9 nM.

With `O=C(O)Cc1ccc(O[C@@H]2CC[C@@H](NC(=O)[C@]3(F)CNC4(CCC4)C3)C2)c(-c2cccc(F)c2C2CCC2)c1` (single isomer, unassigned) [Example A8], the Ki is greater than 400 nM.

In the case of `CN1CC2(CCCC2)C[C@H]1C(=O)N[C@@H]1CC[C@@H](Oc2cccc(C(=O)NS(C)(=O)=O)c2-c2cccc(F)c2C2CCC2)C1` (atropisomer, axis not shown) [Example I9, (3ξ)-N-[(1R,3R)-3-({(1ψ)-2′-cyclobutyl-3′-fluoro-6-[(methanesulfonyl)carbamoyl][1,1′-biphenyl]-2-yl}oxy)cyclopentyl]-2-methyl-2-azaspiro[4.4]nonane-3-carboxamide], the Ki was found to be 411 nM.

With `CC1(C)CNC[C@](F)(C(=O)N[C@@H]2CC[C@@H](Oc3ccc(C(C)(C)C(=O)NS(=O)(=O)C4CC4)cc3-c3cccc(F)c3C3CCC3)C2)C1` (single isomer, unassigned) [Example B27], the Ki was found to be 103 nM.

Take `O=C(Cc1ccc(O[C@@H]2CC[C@@H](NC(=O)[C@@]3(F)CNC4(CCC4)C3)C2)c(-c2cccc(F)c2C2CCC2)c1)NS(=O)(=O)C1CC1` (single isomer, unassigned) [Example C30]: the Ki is 238 nM.

For `CC(C)(C(=O)NS(=O)(=O)C1CC1)c1ccc(O[C@@H]2CC[C@@H](NC(=O)[C@@]3(F)CNC4(CCCC4)C3)C2)c(-c2cccc(F)c2C2CCC2)c1` (single isomer, unassigned) [Example B25], the Ki turned out to be 72.8 nM.

In the case of `CC1(C)CNC[C@](F)(C(=O)N[C@@H]2CC[C@@H](Oc3ccc(C(C)(C)C(=O)NS(C)(=O)=O)cc3-c3cccc(F)c3C3CCC3)C2)C1` (single isomer, unassigned) [Example C36], the Ki stood at 118 nM.

`CCS(=O)(=O)NC(=O)Cc1ccc(O[C@@H]2CC[C@@H](NC(=O)[C@@]3(F)CNC4(CCCC4)C3)C2)c(-c2ccccc2C(C)C)c1` (single isomer, unassigned) [Example C64]: the inhibitory constant (Ki) is greater than 99.9 nM.

`CC(C)c1ccccc1-c1c(CC(=O)O)cccc1O[C@@H]1CC[C@@H](NC(=O)[C@@H]2CC(C)(C)CN2C)C1` (atropisomer, axis not shown) [Example H5, [(1ψ)-2′-(propan-2-yl)-6-({(1R,3R)-3-[(1,4,4-trimethyl-L-prolyl)amino]cyclopentyl}oxy)[1,1′-biphenyl]-2-yl]acetic acid]: the Ki was found to be 9040 nM.

On to `CC(C)(C(=O)NS(=O)(=O)C1(C)CC1)c1ccc(O[C@@H]2CC[C@@H](NC(=O)[C@@]3(F)CNC4(CCC4)C3)C2)c(-c2cccc(F)c2C2CCC2)c1` (single isomer, unassigned) [Example B33], for which the Ki is 27.6 nM.

For `CC1(C)CNC[C@](F)(C(=O)N[C@@H]2CC[C@@H](Oc3ccc(C(C)(C)C(=O)NS(=O)(=O)C4(C)CC4)cc3-c3cccc(F)c3C3CCC3)C2)C1` (single isomer, unassigned) [Example C34], the Ki worked out at 321 nM.

Regarding `CCS(=O)(=O)NC(=O)C(C)(C)c1ccc(O[C@@H]2CC[C@@H](NC(=O)[C@@]3(F)CNCC(C)(C)C3)C2)c(-c2cccc(F)c2C2CCC2)c1` (single isomer, unassigned) [Example B21], the Ki amounted to 81.7 nM.

Consider `CC(C)c1c(F)cccc1-c1cc(C(C)(C)C(=O)NS(=O)(=O)C2(C)CC2)ccc1O[C@@H]1CC[C@@H](NC(=O)[C@@]2(F)CNC3(CCC3)C2)C1` (single isomer, unassigned) [Example C42], for which the Ki was greater than 99.9 nM.

Consider `CCS(=O)(=O)NC(=O)C(C)(C)c1ccc(O[C@@H]2CC[C@@H](NC(=O)[C@@]3(F)CNC4(CCCC4)C3)C2)c(-c2cccc(F)c2C2CCC2)c1` (single isomer, unassigned) [Example B19], for which the inhibition constant Ki amounted to 34.7 nM.

Regarding `CC(C)(C(=O)NS(=O)(=O)C1CC1)c1ccc(O[C@@H]2CC[C@@H](NC(=O)[C@]3(F)CNC4(CCC4)C3)C2)c(-c2cccc(F)c2C2CCC2)c1` (single isomer, unassigned) [Example B11], the Ki was 517 nM.

As to `CN1CC(C)(C)C[C@H]1C(=O)N[C@@H]1CC[C@@H](Oc2cccc(CC(=O)NS(N)(=O)=O)c2-c2ccccc2C2CCC2)C1` (atropisomer, axis not shown) [Example I6, N-[(1R,3R)-3-({(1ψ)-2′-cyclobutyl-6-[2-oxo-2-(sulfamoylamino)ethyl][1,1′-biphenyl]-2-yl}oxy)cyclopentyl]-1,4,4-trimethyl-L-prolinamide], the inhibition constant (Ki) was determined as 387 nM.

For the molecule `CN1CC2(CCCC2)C[C@@H]1C(=O)N[C@@H]1CC[C@@H](Oc2cccc(C(=O)NS(C)(=O)=O)c2-c2cccc(F)c2C2CCC2)C1` (atropisomer, axis not shown) [Example I8, (3ξ)-N-[(1R,3R)-3-({(1ψ)-2′-cyclobutyl-3′-fluoro-6-[(methanesulfonyl)carbamoyl][1,1′-biphenyl]-2-yl}oxy)cyclopentyl]-2-methyl-2-azaspiro[4.4]nonane-3-carboxamide], the Ki amounted to 1360 nM.

Take `CN1CC(C)(C)C[C@H]1C(=O)N[C@@H]1CC[C@@H](Oc2cccc(C(=O)NS(C)(=O)=O)c2-c2cccc(F)c2C2CCC2)C1` (atropisomer, axis not shown) [Example I2, N-[(1R,3R)-3-({(1ψ)-2′-cyclobutyl-3′-fluoro-6-[(methanesulfonyl)carbamoyl][1,1′-biphenyl]-2-yl}oxy)cyclopentyl]-1,4,4-trimethyl-L-prolinamide]: the Ki is 1970 nM.

For `CN1CC2(CCCC2)C[C@H]1C(=O)N[C@@H]1CC[C@@H](Oc2ccc(C(=O)O)cc2-c2ccccc2C2CCC2)C1` (single isomer, unassigned) [Example D8], the Ki worked out at 926 nM.

`CC(C)(C(=O)NS(=O)(=O)N1CC(F)(F)C1)c1ccc(O[C@@H]2CC[C@@H](NC(=O)[C@]3(F)CNC4(CCC4)C3)C2)c(-c2cccc(F)c2C2CCC2)c1` (single isomer, unassigned) [Example B9]: the Ki turned out to be 209 nM.

In general, Ki refers to a dissociation constant, usually derived from enzyme kinetics or from competition with a known ligand.

The values above are taken from US20250188030A1, “Biphenyl and Phenylpyridine Compounds” (Pfizer Inc., priority 2023, published 2025).
